In patent publication US20250108038A1 (priority 2023, published 2025):
Where “and” joins values, the source holds several entries; their conditions need not be identical. Identical values can stand only once. Counter-ions that a name gives are not always drawn.

Tested on: Long Evans rats
Test: Behavioral satiety sequence (BSS)
Type: in vivo, Long Evans rat
Source text: The Behavioural Satiety Sequence (BSS) is a technique used to evaluate physiological satiety. It is based on the expression of a sequence of behaviors including eating, grooming, locomotor activity, followed by resting, which are typically observed in rodents post-ingestion (Halford et al, 1998, Pharmacology Biochemistry and Behaviour. 61(2): 159-168). The BSS is a widely used model for determining the effects of novel pharmaceuticals on food intake and measures of satiety in rodents (Oliveira et al, 2011, Revista de Nutrição. 24(4) 619-628), and to discriminate the cause of reduced food intake following pharmacological manipulation. For example, treatments that may reduce food intake by non-specific mechanisms, such as immobility, malaise, and taste adulteration, will disrupt this sequence (Halford et al, 1998, Pharmacology Biochemistry and Behaviour. 61(2): 159-168).
Specifically, 12 male Long-Evans rats were food-deprived for 22 h with a 2 h feeding period each day. Rats were trained to consume daily food during the 2 h period over 25 days. The testing phase was initiated once the rats consistently consumed 16-18 g of food per day with ≤10% variance in amount of feed consumed. Feeding took place in designated individual boxes in a quiet room separate from the housing room. Continuous remote monitoring via video camera during feeding was used to assess the BSS. Food consumption was measured by weighing the total available food before and after the 2 h feeding window, correcting for spillage. Lorcaserin (1 mg/kg) was included as a reference control (Higgins et al, 2011, Neuropsychopharmacology. 37(5): 1177-1191). Subjects were tested using a repeated-measures, Latin square design with 2-3 days wash-out between treatment cycles.
On scheduled test days, animals were monitored remotely via video camera during the feeding access period. The occurrence of four mutually exclusive behaviors (eating/drinking, grooming, active, rest) were individually scored. Over the 2 h feeding period, behaviors were assessed every 30 seconds. Scores were compiled into 23 5 min timebins (timebin 24 was removed due to early removal of animals) and the frequency of each behavior within each timebin was calculated to determine a temporal frequency of each measure (Rodgers et al, 2010, Pharmacology Biochemistry and Behaviour. 97: 3-14). Percentage time was plotted for each behavioral sequence in each timebin to compare between treatment groups (Higgins et al, 2011, Neuropsychopharmacology. 37(5): 1177-1191).

[1] = 1 mg/kg, AVG of animals LT-1 to LT-12
[2] = 1 mg/kg, raw score per animal LT-1 to LT-12, hydrochloride
[3] = Lorcaserin 1 mg/kg s.c., AVG of the group
[4] = Lorcaserin 1 mg/kg s.c., raw score per animal, hydrochloride

C[C@H]1CNCCc2ccc(Cl)cc21 [lorcaserin, Lorcaserin hydrochloride, reference compound]
BSS scoring A (active), Time Bin 13 (60-65 TOTAL), AVG [1]: 0.20
BSS scoring A (active), Time Bin 14 (65-70 TOTAL), AVG [1]: 0.20
BSS scoring A (active), Time Bin 15 (70-75 TOTAL), AVG [1]: 0.12
BSS scoring A (active), Time Bin 16 (75-80 TOTAL), AVG [1]: 0.06
BSS scoring A (active), Time Bin 17 (80-85 TOTAL), AVG [1]: 0.07
BSS scoring A (active), Time Bin 18 (85-90 TOTAL), AVG [1]: 0.13
BSS scoring E (eating/drinking), Time Bin 13 (60-65 TOTAL), AVG [1]: 0.66
BSS scoring E (eating/drinking), Time Bin 14 (65-70 TOTAL), AVG [1]: 0.65
BSS scoring E (eating/drinking), Time Bin 15 (70-75 TOTAL), AVG [1]: 0.70
BSS scoring E (eating/drinking), Time Bin 16 (75-80 TOTAL), AVG [1]: 0.83
BSS scoring E (eating/drinking), Time Bin 17 (80-85 TOTAL), AVG [1]: 0.84
BSS scoring E (eating/drinking), Time Bin 18 (85-90 TOTAL), AVG [1]: 0.73
BSS scoring G (grooming), Time Bin 13 (60-65 TOTAL), AVG [1]: 0.07
BSS scoring G (grooming), Time Bin 14 (65-70 TOTAL), AVG [1]: 0.04
BSS scoring G (grooming), Time Bin 15 (70-75 TOTAL), AVG [1]: 0.12
BSS scoring G (grooming), Time Bin 16 (75-80 TOTAL), AVG [1]: 0.08
BSS scoring G (grooming), Time Bin 17 (80-85 TOTAL), AVG [1]: 0.04
BSS scoring G (grooming), Time Bin 18 (85-90 TOTAL), AVG [1]: 0.10
BSS scoring R (resting), Time Bin 13 (60-65 TOTAL), AVG [1]: 0.08
BSS scoring R (resting), Time Bin 14 (65-70 TOTAL), AVG [1]: 0.11
BSS scoring R (resting), Time Bin 15 (70-75 TOTAL), AVG [1]: 0.07
BSS scoring R (resting), Time Bin 16 (75-80 TOTAL), AVG [1]: 0.03
BSS scoring R (resting), Time Bin 17 (80-85 TOTAL), AVG [1]: 0.05
BSS scoring R (resting), Time Bin 18 (85-90 TOTAL), AVG [1]: 0.03
BSS scoring A (active), Time Bin 13 (60-65 TOTAL) [2]: 6 and 5 and 2 (2×) and 1 (2×) and 0 (4×) and 4 and 3
BSS scoring A (active), Time Bin 14 (65-70 TOTAL) [2]: 4 (3×) and 2 (4×) and 0 and 1 (4×)
BSS scoring A (active), Time Bin 15 (70-75 TOTAL) [2]: 0 (5×) and 1 (4×) and 4 (2×) and 2
BSS scoring A (active), Time Bin 16 (75-80 TOTAL) [2]: 0 (9×) and 2 and 1 and 4
BSS scoring A (active), Time Bin 17 (80-85 TOTAL) [2]: 0 (8×) and 2 (4×)
BSS scoring A (active), Time Bin 18 (85-90 TOTAL) [2]: 4 and 0 (5×) and 1 (4×) and 6 and 2
BSS scoring E (eating/drinking), Time Bin 13 (60-65 TOTAL) [2]: 4 and 3 and 6 and 5 (2×) and 7 (2×) and 8 (3×) and 9 (2×)
BSS scoring E (eating/drinking), Time Bin 14 (65-70 TOTAL) [2]: 6 (2×) and 5 and 7 and 10 and 4 (2×) and 8 (3×) and 3 and 9
BSS scoring E (eating/drinking), Time Bin 15 (70-75 TOTAL) [2]: 6 (3×) and 9 (4×) and 2 and 10 and 3 and 8 and 7
BSS scoring E (eating/drinking), Time Bin 16 (75-80 TOTAL) [2]: 10 (7×) and 1 and 9 (2×) and 5 and 6
BSS scoring E (eating/drinking), Time Bin 17 (80-85 TOTAL) [2]: 8 (3×) and 9 (3×) and 10 (3×) and 7 (2×) and 6
BSS scoring E (eating/drinking), Time Bin 18 (85-90 TOTAL) [2]: 4 and 9 (2×) and 6 (2×) and 10 (3×) and 7 (3×) and 3
BSS scoring G (grooming), Time Bin 13 (60-65 TOTAL) [2]: 0 (8×) and 2 (2×) and 3 and 1
BSS scoring G (grooming), Time Bin 14 (65-70 TOTAL) [2]: 0 (8×) and 1 (3×) and 2
BSS scoring G (grooming), Time Bin 15 (70-75 TOTAL) [2]: 0 (6×) and 3 and 1 (4×) and 7
BSS scoring G (grooming), Time Bin 16 (75-80 TOTAL) [2]: 0 (10×) and 6 and 3
BSS scoring G (grooming), Time Bin 17 (80-85 TOTAL) [2]: 0 (8×) and 1 (3×) and 2
BSS scoring G (grooming), Time Bin 18 (85-90 TOTAL) [2]: 2 (3×) and 1 (3×) and 0 (5×) and 3
BSS scoring R (resting), Time Bin 13 (60-65 TOTAL) [2]: 0 (7×) and 2 and 4 and 1 (3×)
BSS scoring R (resting), Time Bin 14 (65-70 TOTAL) [2]: 0 (7×) and 1 (2×) and 4 (2×) and 3
BSS scoring R (resting), Time Bin 15 (70-75 TOTAL) [2]: 4 and 1 (2×) and 0 (8×) and 2
BSS scoring R (resting), Time Bin 16 (75-80 TOTAL) [2]: 0 (9×) and 1 (2×) and 2
BSS scoring R (resting), Time Bin 17 (80-85 TOTAL) [2]: 2 (2×) and 1 (2×) and 0 (8×)
BSS scoring R (resting), Time Bin 18 (85-90 TOTAL) [2]: 0 (9×) and 2 and 1 (2×)
effect on the behavioral satiety sequence (BSS) (Compound I-19 0.1-3 mg/kg IP, lorcaserin 1 mg/kg SC): preserved the BSS at the 1 mg/kg dose
BSS scoring A (active), Time Bin 7 (30-35 TOTAL), AVG [3]: 0.18
BSS scoring A (active), Time Bin 8 (35-40 TOTAL), AVG [3]: 0.21
BSS scoring A (active), Time Bin 9 (40-45 TOTAL), AVG [3]: 0.10
BSS scoring A (active), Time Bin 10 (45-50 TOTAL), AVG [3]: 0.16
BSS scoring A (active), Time Bin 11 (50-55 TOTAL), AVG [3]: 0.09
BSS scoring A (active), Time Bin 12 (55-60 TOTAL), AVG [3]: 0.10
BSS scoring E (eating/drinking), Time Bin 7 (30-35 TOTAL), AVG [3]: 0.68
BSS scoring E (eating/drinking), Time Bin 8 (35-40 TOTAL), AVG [3]: 0.68
BSS scoring E (eating/drinking), Time Bin 9 (40-45 TOTAL), AVG [3]: 0.74
BSS scoring E (eating/drinking), Time Bin 10 (45-50 TOTAL), AVG [3]: 0.78
BSS scoring E (eating/drinking), Time Bin 11 (50-55 TOTAL), AVG [3]: 0.75
BSS scoring E (eating/drinking), Time Bin 12 (55-60 TOTAL), AVG [3]: 0.83
BSS scoring G (grooming), Time Bin 7 (30-35 TOTAL), AVG [3]: 0.12
BSS scoring G (grooming), Time Bin 8 (35-40 TOTAL), AVG [3]: 0.09
BSS scoring G (grooming), Time Bin 9 (40-45 TOTAL), AVG [3]: 0.12
BSS scoring G (grooming), Time Bin 10 (45-50 TOTAL), AVG [3]: 0.01
BSS scoring G (grooming), Time Bin 11 (50-55 TOTAL), AVG [3]: 0.04
BSS scoring G (grooming), Time Bin 12 (55-60 TOTAL), AVG [3]: 0.05
BSS scoring R (resting), Time Bin 7 (30-35 TOTAL), AVG [3]: 0.03
BSS scoring R (resting), Time Bin 8 (35-40 TOTAL), AVG [3]: 0.03
BSS scoring R (resting), Time Bin 9 (40-45 TOTAL), AVG [3]: 0.04
BSS scoring R (resting), Time Bin 10 (45-50 TOTAL), AVG [3]: 0.06
BSS scoring R (resting), Time Bin 11 (50-55 TOTAL), AVG [3]: 0.12
BSS scoring R (resting), Time Bin 12 (55-60 TOTAL), AVG [3]: 0.02
BSS scoring A (active), Time Bin 7 (30-35 TOTAL) [4]: 0 (4×) and 3 and 1 (3×) and 4 and 2 (2×) and 7
BSS scoring A (active), Time Bin 8 (35-40 TOTAL) [4]: 4 (2×) and 2 (2×) and 1 (4×) and 3 (3×) and 0
BSS scoring A (active), Time Bin 9 (40-45 TOTAL) [4]: 0 (7×) and 2 and 1 (3×) and 7
BSS scoring A (active), Time Bin 10 (45-50 TOTAL) [4]: 2 (2×) and 4 and 0 (7×) and 10 and 1
BSS scoring A (active), Time Bin 11 (50-55 TOTAL) [4]: 0 (6×) and 2 (2×) and 1 (3×) and 4
BSS scoring A (active), Time Bin 12 (55-60 TOTAL) [4]: 2 (2×) and 0 (6×) and 1 (3×) and 5
BSS scoring E (eating/drinking), Time Bin 7 (30-35 TOTAL) [4]: 6 (4×) and 7 (2×) and 8 (2×) and 5 and 3 and 10 (2×)
BSS scoring E (eating/drinking), Time Bin 8 (35-40 TOTAL) [4]: 5 (3×) and 7 and 9 and 8 (3×) and 4 and 6 (2×) and 10
BSS scoring E (eating/drinking), Time Bin 9 (40-45 TOTAL) [4]: 10 (2×) and 7 (2×) and 9 (2×) and 8 (3×) and 2 and 6 and 5
BSS scoring E (eating/drinking), Time Bin 10 (45-50 TOTAL) [4]: 8 (2×) and 6 (2×) and 10 (4×) and 0 and 9 (2×) and 7
BSS scoring E (eating/drinking), Time Bin 11 (50-55 TOTAL) [4]: 10 (3×) and 7 (3×) and 1 and 8 (4×) and 6
BSS scoring E (eating/drinking), Time Bin 12 (55-60 TOTAL) [4]: 6 and 7 (2×) and 9 (5×) and 10 (3×) and 5
BSS scoring G (grooming), Time Bin 7 (30-35 TOTAL) [4]: 3 and 1 (3×) and 2 (4×) and 0 (4×)
BSS scoring G (grooming), Time Bin 8 (35-40 TOTAL) [4]: 1 (7×) and 0 (3×) and 2 (2×)
BSS scoring G (grooming), Time Bin 9 (40-45 TOTAL) [4]: 0 (4×) and 1 (5×) and 2 and 3 and 4
BSS scoring G (grooming), Time Bin 10 (45-50 TOTAL) [4]: 0 (11×) and 1
BSS scoring G (grooming), Time Bin 11 (50-55 TOTAL) [4]: 0 (7×) and 1 (5×)
BSS scoring G (grooming), Time Bin 12 (55-60 TOTAL) [4]: 2 (2×) and 0 (8×) and 1 (2×)
BSS scoring R (resting), Time Bin 7 (30-35 TOTAL) [4]: 1 (3×) and 0 (9×)
BSS scoring R (resting), Time Bin 8 (35-40 TOTAL) [4]: 0 (9×) and 1 (3×)
BSS scoring R (resting), Time Bin 9 (40-45 TOTAL) [4]: 0 (9×) and 1 (2×) and 3
BSS scoring R (resting), Time Bin 10 (45-50 TOTAL) [4]: 0 (8×) and 4 and 1 (3×)
BSS scoring R (resting), Time Bin 11 (50-55 TOTAL) [4]: 0 (7×) and 2 (3×) and 7 and 1
